Experimental data as given in patent publication US20050209231A1, “Compositions and methods for inducing cardiomyogenesis” (priority 2004, published 2005).
pEC50: −log10 of the molar value.

What was measured:
[1] = Toxicity of the cardiogenols (Table 1); assay type: cell-based, murine; details: mouse, P19CL6 cells
[2] = tested on: P19CL6 cells; assay: MHC expression by immunostaining (anti-MHC antibody MF20), secondary assay for differentiation; assay type: cell-based, murine; details: for Optimal Activity: % cells positive for MHC after 7 days; for pEC50: Mus musculus, P19CL6, inducing MHC expression
Protocol: MHC is one of the essential motor proteins responsible for cardiac muscle contractibility and was used as a secondary assay for differentiation. […] The P19CL6 cell line is a subclone of P19 EC cells with higher potential for cardiomyogenesis. See Habara-Ohkubo, Cell Struct. Funct., 21:101-110 (1996). MHC expression was determined in P19CL6 cells by immunostaining cells with anti-MHC antibody (MF20) (FIG. 2F).
The optimal activities of the cardiogenols in Table 1 are indicated by a series of "+" signs, as follows: ++: 10-25% cells are positive for MHC after 7 days; +++: 25-40% cells are positive for MHC after 7 days; ++++: 40-55% cells are positive for MHC after 7 days.

[3] = tested on: R1 cells; assay: Cellular toxicity and cell death in R1 cells; assay type: cell-based
[4] = tested on: R1 mouse ESCs; assay: Differentiation of undifferentiated R1 ESCs in monolayer into cardiac muscle (immunostaining of MHC, GATA-4, MEF2, Nkx2.5; beating); assay type: cell-based
Protocol: FIG. 2. Immunostaining of cardiac muscle markers in ESCs (A to E) and P19CL6 cells (F) treated with 0.25 μM cardiogenol C: (A) and (F) Myosin Heavy Chain (green); (B) GATA-4 (red); (C) MEF2 (red); (D) Nkx2.5 (red); and (E) Myosin Heavy Chain (green) and MEF2 (red). Cell nuclei were stained with DAPI (blue). Cells were fixed with 4% paraformaldehyde (Sigma) for 20 min. Cell staining was performed in PBS (Gibco) with 0.3% Triton X-100 and 6% horse serum. Primary antibodies were used at the following dilutions: myosin heavy chain (MHC) mouse monoclonal antibody MF20 (Developmental Studies Hybridoma Bank, 1:200), rabbit polyclonal anti-GATA-4 antibody (Santa Cruz Biotech, 1:300), rabbit anti-MEF2 antibody (Santa Cruz Biotech, 1:100) and goat anti-Nkx2.5 antibody (Santa Cruz Biotech, 1:100). Secondary antibodies were Cy2-conjugated anti-mouse (1:300), or Cy3-conjugated anti-rabbit or anti-goat antibodies (Jackson ImmunoResearch, 1:500). Cell nuclei were stained with DAPI (Roche). Images were taken with a Nikon Eclipes TE2000 microscope with 200-fold magnification. Double or triple-labeled images were assembled in Metamorph.
To confirm that these compounds are general cardiomyogenesis inducing agents, their effects on undifferentiated R1 mouse ESCs were analyzed. R1 mouse ESCs can be maintained in a pluripotent state with the addition of leukemia inhibitory factor (LIF) in the culture medium. The embryonic stem cell line R1 was cultured in gelatin-coated tissue culture dishes with Knockout DMEM with 15% ES serum replacement, 1 mM L-glutamine (from Gibco), 1% nonessential amino acids stock, 1% nucleosides stock, 0.1 mM […] (from Specialty Media) and 1000 units/mL of leukemia inhibitory factor (LIF, from Chemicon).
For differentiation, R1 cells were plated in a monolayer (10000 cells/well) in gelatin-coated 384-well or 96-well plates with 100 μL of DMEM with 10% FBS and 0.25 μM of compounds. LIF was not present during differentiation. After 7 days in culture (3 days with compounds and then, after changing the medium without additional compound added, another 4 days), the presence of beating cardiac muscle was visualized under a microscope. In addition to the expression of MHC (FIG. 2A), the cardiac specific gene, GATA-4, was detected by immunofluorescent staining using anti-GATA4 antibody (FIG. 2B).
Cardiogenol C has a […] aniline substituting at the pyrimidine C2 position and is very potent with an EC50 of 0.1 μM for inducing the differentiation of MHC positive cardiomyocytes from ESCs. […] See Boheler et al., Circ. Res., 91:189-201 (2002). […] This is in contrast to the current standard method of inducing cardiomyogenesis of ESCs by aggregation and formation of EBs, which results in only 5% of the cell population forming cardiomyocytes. See Boheler et al., (2002).
To further characterize the activity of Cardiogenol C, the expression of the cardiac muscle cell specific transcription factors MEF2 and Nkx2.5 was examined (FIGS. 2C and D). Members of the MEF2 family are essential for muscle development. See, e.g., Edmondson, et al., Development, 1251-1263 (1994); Lin et al., Science, 276:1404-1407 (1997). Nkx2.5 together with GATA-4 regulates the expression of multiple cardiac muscle specific genes (e.g., myosin light chain 2V, atria natriuretic factor, eHAND and homeodomain transcription factor HOP). See, e.g., Small et al., Cell, 110:725-735 (2002); Shin et al., Cell, 110:725-35 (2002). Moreover, the targeted interruption of Nkx2.5 gene is embryonic lethal and results in arrest of cardiac development. See, e.g., Lyons et al., Genes Dev., 9:1654-66 (1995). Approximately 90% of cardiogenol C treated cells stain positive for MEF2 and Nkx2.5, further confirming that ESCs are differentiated into cardiac muscle by cardiogenol C.

[5] = R1 cells, 0.25 μM compound for 3 days, then 4 days in medium without compound

Row | pEC50 [2] | SMILES | pEC50 [1] | Optimal Activity [2] | concentration showing significant cellular toxicity [3] | treated cells stain positive for MEF2 ([4]; ESCs) | treated cells stain positive for Nkx2.5 ([4]; ESCs) | pEC50 ([4]; Mus musculus, Cardiomyocyte, read-out: EC50 for inducing the differentiation of MHC positive cardiomyocytes from ESCs) | beating areas (functional cardiac muscle) ([4]; R1 cells treated with compound) | cells positive for GATA-4 [4, 5] | cells stained positive for MHC [4, 5]
1 | 6.00 | OCCNc1ccnc(Nc2ccc(Nc3ccccc3)cc2)n1 [Cardiogenol A] | 5.30 | ++ (10-25% cells are positive for MHC after 7 days) |  |  |  |  |  |  | 
2 | 7.00 | OCCNc1ccnc(Nc2ccc(/C=C/c3ccccc3)cc2)n1 [Cardiogenol D] | 5.60 | ++++ (40-55% cells are positive for MHC after 7 days) |  |  |  |  |  |  | 
3 | 6.30 | OCCNc1ccnc(Nc2ccc(Oc3ccccc3)cc2)n1 [Cardiogenol B] | 5.30 | +++ (25-40% cells are positive for MHC after 7 days) |  |  |  |  |  |  | 

Row | SMILES | pEC50 [2] | pEC50 [1] | Optimal Activity [2] | concentration showing significant cellular toxicity [3] | treated cells stain positive for MEF2 ([4]; ESCs) | treated cells stain positive for Nkx2.5 ([4]; ESCs) | pEC50 ([4]; Mus musculus, Cardiomyocyte, read-out: EC50 for inducing the differentiation of MHC positive cardiomyocytes from ESCs) | beating areas (functional cardiac muscle) ([4]; R1 cells treated with compound) | cells positive for GATA-4 [4, 5] | cells stained positive for MHC [4, 5]
4 | COc1ccc(Nc2nccc(NCCO)n2)cc1 [Cardiogenol C] | 7.00 | 4.60 | ++++ (40-55% cells are positive for MHC after 7 days) | greater than 25 μM | Approximately 90% | Approximately 90% | 7.00 | many beating areas | more than 90% | more than 50%
